The source of these data is patent US20170231177A1, “REGENERATION AND TRANSFORMATION OF COSMOS BIPINNATUS PLANTLETS” (Novin Giti Gene R&D Center (N.G.G), priority 2015, published 2017).

Assay [1] has as its system cotyledon explants of Cosmos Bipinnatus. Kind of assay: Shoot number of regenerated cotyledon explants on regeneration media. It counts as cell-based. The method, then: (§1) In this example, direct regeneration of Cosmos Bipinnatus plantlets was carried out with the following steps according to one or more aspects of the present disclosure. First, Cosmos Bipinnatus seeds were sterilized. The sterilization of Cosmos Bipinnatus seeds was carried out by soaking the seeds in an ethanol solution with a concentration of about 70% volume/volume for about 1 min followed by soaking the seeds in a hypochlorite sodium solution with a concentration of about 2% weight/volume for about 10 min, and then the seeds were rinsed three times with sterile distilled water.
(§2) The sterilized Cosmos Bipinnatus seeds were then germinated in order to obtain cotyledons of Cosmos Bipinnatus plant. Seed germination was carried out by putting the sterilized Cosmos Bipinnatus seeds under a sterile condition in an agar-solidified MS medium. Then, the sterilized Cosmos Bipinnatus seeds in the agar-solidified MS medium were incubated in a growth chamber with photoperiods of 16 hours in light and 8 hours in dark under fluorescent illuminations (60 μmol m^2 s^1) at 22° C.±1° C. for a period of 3 days. The cotyledons of Cosmos Bipinnatus plant that grew from germinated seeds after 3 days were cut and used as explants in the following steps of the direct regeneration process.
(§3) The obtained explants were then cultured onto a regeneration medium for regenerating cotyledon explants of Cosmos Bipinnatus. To this end, 10 explants, with their adaxial side down, were cultured onto the regeneration medium in a Petri dish for regeneration in cotyledons to occur. The regeneration in cotyledons was assessed by examining shoot-inducing ability in the presence of different regeneration medium compositions. The different regeneration medium compositions included respectively different concentrations of plant growth regulators and ethylene inhibitors. The regeneration media contained benzyl adenine (BA), silver nitrate, and adenine sulfate with different concentrations. An MS medium supplemented with 3% sucrose was used as a basal medium and the pH was adjusted to about 5.8 using a 1 N solution of NaOH.
As used herein, “shoot number” is the average number of shoots that are generated on the 10 explants used in the experiments for three replications.

The test system is the same in assay [2]. The assay is described as follows: Regeneration frequency of cotyledon explants on regeneration media. In kind it is cell-based. As for the experimental part: as §1, §2
as §3, with “An MS medium supplemented with 3% sucrose was used as a basal medium and the pH was adjusted to about 5.8 using a 1 N solution of NaOH.” left out

[3] abbreviates: BA 2.5, AgNO3 0, adenine sulfate 0 mg/l in MS medium.
The mark [4] stands for this setting: BA 5, AgNO3 0, adenine sulfate 0 mg/l in MS medium.
[5] abbreviates: BA 7.5, AgNO3 0, adenine sulfate 0 mg/l in MS medium.

With `Nc1ncnc2nc[nH]c12.O=S(=O)(O)O` [Adenine sulfate, adenine sulfate], the Shoot number in assay [1] (BA 0, AgNO3 0, adenine sulfate 10 mg/l in MS medium) is listed as 0.00 ± 0.00; in assay [1] (BA 0, AgNO3 0, adenine sulfate 20 mg/l in MS medium), 0.00 ± 0.00; in assay [1] (BA 0, AgNO3 0, adenine sulfate 40 mg/l in MS medium), 0.00 ± 0.00; in assay [1] (BA 0, AgNO3 0, adenine sulfate 80 mg/l in MS medium) it was 0.00 ± 0.00.

Regarding `O=[N+]([O-])[O-].[Ag+]` [AgNO3, silver nitrate], the Shoot number in assay [1] (BA 0, AgNO3 2.5, adenine sulfate 0 mg/l in MS medium) came out at 0.00 ± 0.00; in assay [1] (BA 0, AgNO3 5, adenine sulfate 0 mg/l in MS medium), 0.00 ± 0.00; in assay [1] (BA 0, AgNO3 7.5, adenine sulfate 0 mg/l in MS medium), 0.00 ± 0.00.

Regarding `c1ccc(CNc2ncnc3nc[nH]c23)cc1` [BA, benzyladenine], the Regeneration frequency came to 6.25 ± 0.00% in assay [2] (setting [3]), 6.25 ± 1.70% in assay [2] (setting [4]) and 5.25 ± 2.06% in assay [2] (setting [5]). In addition, the Shoot number is recorded as 1.34 ± 0.33 in assay [1] (setting [3]), 0.34 ± 0.28 in assay [1] (setting [4]) and 0.67 ± 0.33 in assay [1] (setting [5]).
